Source: ChEMBL document CHEMBL1201862, “PubChem BioAssay data set” (2004)
The source made the active and inactive calls.

Tests used:
Insulin-degrading enzyme [1] = biological target: T1, Insulin-degrading enzyme (Homo sapiens, UniProt P14735); assay: activators of recombinant IDE enzyme, dose response, counter-screen for IDE activator project, biochemical, fluorescence polarization (AID 588681)
T1 sequence (P14735 whole entry): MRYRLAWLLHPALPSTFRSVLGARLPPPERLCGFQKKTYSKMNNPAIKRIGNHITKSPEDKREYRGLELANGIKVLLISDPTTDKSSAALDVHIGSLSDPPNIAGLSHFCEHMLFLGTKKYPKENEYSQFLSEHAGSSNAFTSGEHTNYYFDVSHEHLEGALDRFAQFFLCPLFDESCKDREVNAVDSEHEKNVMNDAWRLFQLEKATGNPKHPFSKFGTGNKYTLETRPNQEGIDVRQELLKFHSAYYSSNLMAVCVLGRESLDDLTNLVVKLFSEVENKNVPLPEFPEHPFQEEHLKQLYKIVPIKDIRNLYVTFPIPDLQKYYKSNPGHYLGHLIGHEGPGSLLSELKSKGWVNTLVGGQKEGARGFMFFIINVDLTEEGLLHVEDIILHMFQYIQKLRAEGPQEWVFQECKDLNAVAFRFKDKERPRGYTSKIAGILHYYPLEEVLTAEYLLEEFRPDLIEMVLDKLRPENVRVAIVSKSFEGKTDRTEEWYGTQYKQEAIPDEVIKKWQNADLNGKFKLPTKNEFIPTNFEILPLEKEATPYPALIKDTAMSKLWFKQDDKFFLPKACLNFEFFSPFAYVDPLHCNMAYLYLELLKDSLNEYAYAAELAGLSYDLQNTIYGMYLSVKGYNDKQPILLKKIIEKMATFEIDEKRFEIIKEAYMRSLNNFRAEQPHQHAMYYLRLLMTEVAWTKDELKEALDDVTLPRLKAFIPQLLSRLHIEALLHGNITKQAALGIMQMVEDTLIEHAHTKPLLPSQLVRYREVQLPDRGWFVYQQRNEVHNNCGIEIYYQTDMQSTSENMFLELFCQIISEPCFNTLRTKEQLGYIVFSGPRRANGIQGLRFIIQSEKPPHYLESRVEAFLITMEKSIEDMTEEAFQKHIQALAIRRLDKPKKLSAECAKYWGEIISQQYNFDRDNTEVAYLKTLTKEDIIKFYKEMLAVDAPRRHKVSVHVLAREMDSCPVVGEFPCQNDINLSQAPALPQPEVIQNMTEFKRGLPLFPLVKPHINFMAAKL

Insulin-degrading enzyme [2] = biological target: T1, Insulin-degrading enzyme; assay: activators of endogenous IDE in HEK cells, dose response, cell-based, fluorescence polarization (AID 588439); format: functional
[3] = biological target: T2, Carboxy-terminal domain RNA polymerase II polypeptide A small phosphatase 1 (Homo sapiens, UniProt Q9GZU7); assay: inhibitors of CTDSP1, concentration-response testing, biochemical assay, absorbance-based, actives from ultra-high-throughput screening (AID 540297); format: functional
T2 sequence (Q9GZU7 whole entry): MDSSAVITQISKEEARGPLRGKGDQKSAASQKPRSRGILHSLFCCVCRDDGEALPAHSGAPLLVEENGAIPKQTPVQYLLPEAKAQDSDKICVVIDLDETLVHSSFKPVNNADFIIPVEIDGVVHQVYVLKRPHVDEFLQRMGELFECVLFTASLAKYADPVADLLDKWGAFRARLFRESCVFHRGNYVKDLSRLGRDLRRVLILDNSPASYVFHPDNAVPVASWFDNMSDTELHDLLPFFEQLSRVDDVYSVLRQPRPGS

[4] = biological target: 72 kDa type IV collagenase (Homo sapiens, UniProt P08253); assay: Dose Response validation of uHTS RPN11 inhibitor hits using a MMP-2 Fluorescence assay.; format: functional
[5] = biological target: Small ubiquitin-related modifier 1 (Homo sapiens, UniProt P63165); assay: inhibitors of SUMO1 partner interactions, dose response, biochemical, FRET (AID 624383); format: functional; conditions: read-out: IC50_Mean
SUMO-activating enzyme = SUMO-activating enzyme (Homo sapiens, UniProt Q9UBT2); assay: inhibitors of in vitro SUMOylation cascade, primary screen, biochemical, HTRF, uHTS (AID 2006); format: protein-complex assay
SUMO-activating enzyme, sequence (Q9UBE0 whole entry): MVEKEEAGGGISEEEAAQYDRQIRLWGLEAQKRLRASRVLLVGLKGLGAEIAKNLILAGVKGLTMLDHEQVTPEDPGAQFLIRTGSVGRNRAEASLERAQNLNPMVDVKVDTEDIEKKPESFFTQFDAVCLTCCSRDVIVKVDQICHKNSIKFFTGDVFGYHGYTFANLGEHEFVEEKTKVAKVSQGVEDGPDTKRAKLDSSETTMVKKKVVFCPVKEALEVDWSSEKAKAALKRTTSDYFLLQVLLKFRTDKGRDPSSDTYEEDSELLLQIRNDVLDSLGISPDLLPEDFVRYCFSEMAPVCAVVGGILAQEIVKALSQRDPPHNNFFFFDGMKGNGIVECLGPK
SUMO-activating enzyme, sequence (Q9UBT2 whole entry): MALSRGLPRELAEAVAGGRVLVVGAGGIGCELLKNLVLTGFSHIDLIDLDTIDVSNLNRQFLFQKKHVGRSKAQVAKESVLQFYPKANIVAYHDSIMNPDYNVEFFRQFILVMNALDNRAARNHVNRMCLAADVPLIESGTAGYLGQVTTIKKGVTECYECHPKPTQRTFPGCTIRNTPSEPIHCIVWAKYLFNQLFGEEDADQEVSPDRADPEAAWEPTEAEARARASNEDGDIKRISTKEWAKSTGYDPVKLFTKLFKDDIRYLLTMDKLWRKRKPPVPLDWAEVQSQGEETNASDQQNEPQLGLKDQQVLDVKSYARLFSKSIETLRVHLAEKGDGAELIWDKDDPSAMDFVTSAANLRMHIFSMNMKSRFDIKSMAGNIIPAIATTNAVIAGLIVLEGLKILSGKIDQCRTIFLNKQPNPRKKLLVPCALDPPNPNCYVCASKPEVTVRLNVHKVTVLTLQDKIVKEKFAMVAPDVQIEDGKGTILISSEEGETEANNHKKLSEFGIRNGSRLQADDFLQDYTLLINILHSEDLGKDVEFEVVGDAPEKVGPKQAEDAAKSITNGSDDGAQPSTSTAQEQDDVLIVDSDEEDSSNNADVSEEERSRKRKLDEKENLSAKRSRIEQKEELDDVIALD

72 kDa type IV collagenase, sequence (P08253 whole entry): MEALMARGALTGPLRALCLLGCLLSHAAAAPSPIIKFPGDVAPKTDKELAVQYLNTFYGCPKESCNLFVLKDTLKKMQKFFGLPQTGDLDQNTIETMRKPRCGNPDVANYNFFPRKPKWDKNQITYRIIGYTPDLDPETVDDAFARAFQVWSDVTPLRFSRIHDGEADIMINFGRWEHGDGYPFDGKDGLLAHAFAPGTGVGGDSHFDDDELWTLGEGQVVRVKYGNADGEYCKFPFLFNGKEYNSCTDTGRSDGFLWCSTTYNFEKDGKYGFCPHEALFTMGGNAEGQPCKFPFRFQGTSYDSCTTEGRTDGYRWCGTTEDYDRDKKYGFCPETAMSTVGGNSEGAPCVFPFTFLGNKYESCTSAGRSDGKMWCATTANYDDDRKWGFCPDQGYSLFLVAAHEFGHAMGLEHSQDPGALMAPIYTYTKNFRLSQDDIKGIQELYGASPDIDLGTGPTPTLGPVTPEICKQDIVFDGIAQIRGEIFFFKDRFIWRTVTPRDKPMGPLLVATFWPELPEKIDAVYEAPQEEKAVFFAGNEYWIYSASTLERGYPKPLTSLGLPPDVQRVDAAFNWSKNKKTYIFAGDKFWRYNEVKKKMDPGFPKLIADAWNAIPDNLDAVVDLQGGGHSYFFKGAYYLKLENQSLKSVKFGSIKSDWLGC
Small ubiquitin-related modifier 1, sequence (P63165 whole entry): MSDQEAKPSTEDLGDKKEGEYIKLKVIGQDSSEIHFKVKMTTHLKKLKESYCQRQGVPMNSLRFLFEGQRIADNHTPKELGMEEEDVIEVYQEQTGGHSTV

O=c1oc2c(O)cccc2cc1-c1nc2ccccc2[nH]1
EC50 (Insulin-degrading enzyme [1]): > 54.7 µM (inactive) | EC50 (Insulin-degrading enzyme [2]): > 54.7 µM (inactive)

CCOC(=O)c1sc2nc3c(SCC(=O)O)cc(C(=O)c4ccccc4O)cn3c(=O)c2c1C
IC50 [3]: 14.8 µM (active) | IC50 [4]: 0.821 µM (active) | IC50 [5]: 6.2 µM (active)

C=CCn1c(NC(=O)c2ccccc2Cl)c(C#N)c2nc3ccccc3nc21
IC50 (SUMO-activating enzyme): 2.63 µM (active)
